The source of these data is US9567339B2, “Primary carboxamides as BTK inhibitors” (AbbVie Inc., priority 2013, dated 2017).

The pIC50 is the negative decadic logarithm of the IC50, by convention in mol/L.

pIC50: −log10 of the molar value.

For one experiment, the target named is BTK, recombinant human catalytic domain (aa 393-659) (Homo sapiens (Human), UniProt Q06187). Put plainly: In vitro BTK kinase activity measured by time-resolved fluorescence resonance energy transfer (trFRET). The experiment is classed as biochemical.
Sequence of BTK, recombinant human catalytic domain (aa 393-659) (Q06187 393-659): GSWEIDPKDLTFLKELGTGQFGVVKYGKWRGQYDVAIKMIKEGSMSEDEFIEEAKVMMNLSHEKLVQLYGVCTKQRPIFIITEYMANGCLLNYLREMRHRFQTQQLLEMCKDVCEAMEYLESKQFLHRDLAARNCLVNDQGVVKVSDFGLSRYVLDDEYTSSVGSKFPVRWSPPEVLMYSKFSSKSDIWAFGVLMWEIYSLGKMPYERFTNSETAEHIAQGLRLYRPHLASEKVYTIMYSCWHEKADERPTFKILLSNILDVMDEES
Settings: not given
Regarding `Cc1c(NC(=O)c2nccs2)cccc1-c1ccc(C(N)=O)c2[nH]cc(NC(=O)CCl)c12` [E.5.1], the negative logarithm of the IC50 (pIC50) is 5.00 to 6.00.

Still in this experiment, the particulars now being: read-out: Btk IC50.
For `Cc1c(NC(=O)CCN2CCCCC2)cccc1-c1ccc(C(N)=O)c2[nH]c(C3=CCN(S(C)(=O)=O)CC3)cc12` [D.7.3], the negative logarithm of the IC50 (pIC50) is 6.00 to 7.00.
On the same count and under the same terms, the value for `C=CC(=O)Nc1cc(-c2ccc(C(N)=O)c3[nH]ccc23)ccc1F` [E.1.23] was > 7.00; that for `C=CC(=O)N1CC(N(C)c2ccc(C(N)=O)c3[nH]c(C4CCN(CCC)CC4)cc23)C1` [E.9.20] was > 7.00; that for `C=CC(=O)Nc1cc(OCc2nccs2)ccc1-c1ccc(C(N)=O)c2[nH]ccc12` [E.1.16] was 5.00 to 6.00.
Take `NC(=O)c1ccc(N2CCCC(n3cnc4cc(C5CC5)cc(F)c4c3=O)C2)c2cc[nH]c12` (stereo not shown) [O.1.13]: the pIC50 was 5.00 to 6.00.
The same measure, in the same setting: the value for `C=CC(=O)N1CC(N(C)c2ccc(C(N)=O)c3[nH]c(C4CCOC4)cc23)C1` (stereo not shown) [E.9.21] was > 7.00; that for `Cc1c(NC(=O)C2=CCCCC2)cccc1-c1ccc(C(N)=O)c2[nH]c(C3=CCN(S(C)(=O)=O)CC3)cc12` [D.7.19] was > 7.00; that for `C/C=C(/C)C(=O)Nc1cccc(-c2ccc(C(N)=O)c3[nH]c(C4=CCN(S(C)(=O)=O)CC4)cc23)c1C` [D.7.1] was > 7.00.
The same measure, in the same setting: next, `C=CC(=O)N1CC(N(C)c2ccc(C(N)=O)c3[nH]c(C4=CCC(S(C)(=O)=O)CC4)cc23)C1` (stereo not shown) [E.9.6]: > 7.00; `C/C=C/C(=O)Nc1cccc(-c2ccc(C(N)=O)c3[nH]c(C4=CCN(S(C)(=O)=O)CC4)cc23)c1C` [D.7.9]: > 7.00; `C=CC(=O)N1CC[C@@H](c2ccc(C(N)=O)c3[nH]c(-c4cnn(C)c4)cc23)C1` [E.9.49]: 6.00 to 7.00.
On the same count and under the same terms, the value for `C=CC(=O)N1CC(N(C)c2ccc(C(N)=O)c3[nH]c(-c4ccc5c(c4)NCCO5)cc23)C1` [E.9.15] was > 7.00; that for `Cc1c(NCc2nccs2)cccc1-c1ccc(C(N)=O)c2[nH]c(C3=CCN(S(C)(=O)=O)CC3)cc12` [H.2.1, 4-(2-methyl-3-(thiazol-2-ylmethylamino)phenyl)-2-(1-(methylsulfonyl)-1,2,3,6-tetrahydropyridin-4-yl)-1H-indole-7-carboxamide] was > 7.00.
On to `C=CC(=O)Nc1cc(OCc2nccs2)cc(-c2ccc(C(N)=O)c3[nH]ccc23)c1` [E.1.15], for which the pIC50 is 6.00 to 7.00.
With `C=CC(=O)N1C[C@H](CO)C[C@@H](c2ccc(C(N)=O)c3[nH]ccc23)C1` [E.9.44], the negative logarithm of the IC50 (pIC50) is 6.00 to 7.00.
Still for that read-out and setting: next, `C=C(CN)C(=O)Nc1cccc(-c2ccc(C(N)=O)c3[nH]ccc23)c1` [G.1.2]: > 7.00; `Cn1cc(-c2cc3c(N4CCC[C@@H](NC(=O)c5ccc(C(C)(C)C(N)=O)cc5)C4)ccc(C(N)=O)c3[nH]2)cn1` [O.1.23*]: 6.00 to 7.00; `C=CC(=O)Nc1cccc(-c2ccc(C(N)=O)c3[nH]c(C4=CCN(S(C)(=O)=O)CC4)cc23)c1C` [D.7.6]: > 7.00.
Still for that read-out and setting: next, `CC(=O)N1CC=C(c2cc3c(-c4cccc(-n5cnc6ccccc6c5=O)c4C)ccc(C(N)=O)c3[nH]2)CC1` [E.8.2]: > 7.00.

The same experiment, now with this note: trFRET, 0.001 mM ATP, biotin-TYR1 peptide substrate; read-out: Btk IC50.
As for `Cc1c(NC(=O)c2nccs2)cccc1-c1ccc(C(N)=O)c2[nH]cc(NC(=O)CC#N)c12` [D.3.1], the pIC50 is 5.00 to 6.00.
On to `C=CC(=O)Nc1cccc(-c2ccc(C(N)=O)c3[nH]c(-c4ccc(N5CCOCC5)nc4)cc23)c1C` [A.1.30], for which the negative-log IC50 (pIC50) was > 7.00.
Still for that read-out and setting: next, `Cc1c(NC(=O)c2nccs2)cccc1-c1ccc(C(N)=O)c2[nH]c(-c3ccccc3CNC(=O)CCN(C)C)cc12` [D.1.4]: 6.00 to 7.00; `NC(=O)c1ccc(-c2ccccc2NC(=O)Cn2sc3ccccc3c2=O)c2cc[nH]c12` [D.2.1]: 5.00 to 6.00.
On to `C=CC(=O)Nc1cccc(-c2ccc(C(N)=O)c3[nH]c(-c4cccc(C#N)c4)cc23)c1C` [A.1.14], for which the negative-log IC50 (pIC50) was > 7.00.
Still for that read-out and setting: the value for `C=CC(=O)Nc1cccc(-c2ccc(C(N)=O)c3[nH]c(-c4ccc5c(c4)CCO5)cc23)c1C` [A.1.21] was > 7.00.
With `NC(=O)c1ccc(-c2ccccc2N)c2cc[nH]c12` [A.5.1, 4-(2-aminophenyl)-1H-indole-7-carboxamide], the pIC50 is 5.00 to 6.00.
For `C=CC(=O)Nc1cccc(-c2ccc(C(N)=O)c3[nH]c(-c4ccnn4C)cc23)c1C` [A.1.11], the pIC50 was > 7.00.
Still for that read-out and setting: the value for `C=CC(=O)Nc1cccc(-c2ccc(C(N)=O)c3[nH]c(-c4cccc(F)c4)cc23)c1C` [A.1.26] was > 7.00; that for `Cc1c(NC(=O)c2nccs2)cccc1-c1ccc(C(N)=O)c2[nH]c(C3=CCN(S(C)(=O)=O)CC3)cc12` [A.4.17] was > 7.00; that for `C=CC(=O)N1CCC[C@H](c2ccc(C(N)=O)c3[nH]ccc23)C1` [30 (R), (R)-4-(1-Acryloylpiperidin-3-yl)-1H-indole-7-carboxamide] was 6.00 to 7.00.
Same read-out and setting: next, `Cc1c(-c2ccc(C(N)=O)c3[nH]c(C4=CCOCC4)cc23)cccc1-n1cnc2ccc(F)cc2c1=O` [A.11.2]: > 7.00; `C=CC(=O)N1CC(Oc2ccc(C(N)=O)c3[nH]ccc23)C1` [Example 27, 4-((1-Acryloylazetidin-3-yl)oxy)-1H-indole-7-carboxamide]: > 7.00; `Cc1c(NC(=O)c2nccs2)cccc1-c1ccc(C(N)=O)c2[nH]c(-c3ccccc3CN)cc12` [Example 1, N-(3-(2-(2-(aminomethyl)phenyl)-7-carbamoyl-1H-indol-4-yl)-2-methylphenyl)thiazole-2-carboxamide]: 6.00 to 7.00.
Still for that read-out and setting: next, `Cc1c(NC(=O)c2nccs2)cccc1-c1ccc(C(N)=O)c2[nH]c(-c3ccccc3CNC(=O)COc3ccccc3)cc12` [D.1.6]: 5.00 to 6.00.
With `C=CC(=O)Nc1cccc(-c2ccc(C(N)=O)c3[nH]c(CCOCC)cc23)c1` [Example 22, 4-(3-Acrylamidophenyl)-2-(2-ethoxyethyl)-1H-indole-7-carboxamide], the pIC50 was > 7.00.
On the same count and under the same terms, next, `Cc1oncc1C(=O)Nc1cccc(-c2ccc(C(N)=O)c3[nH]ccc23)c1` [E.2.1, N-(3-(7-carbamoyl-1H-indol-4-yl)phenyl)-5-methylisoxazole-4-carboxamide]: 5.00 to 6.00.
On the same count and under the same terms, next, `Cc1c(-c2ccc(C(N)=O)c3[nH]c(-c4cnn(C[C@@H](O)CO)c4)cc23)cccc1-n1cnc2ccccc2c1=O` [K.1]: > 7.00; `Cc1c(NC(=O)c2nccs2)cccc1-c1ccc(C(N)=O)c2[nH]cc(C)c12` [Example 3, N-(3-(7-carbamoyl-3-methyl-1H-indol-4-yl)-2-methylphenyl)thiazole-2-carboxamide]: 6.00 to 7.00.
As to `Cc1c(-c2ccc(C(N)=O)c3[nH]c(-c4ccc(F)cc4)cc23)cccc1-n1cnc2ccccc2c1=O` [A.12.1], the negative-log IC50 (pIC50) is > 7.00.
Still for that read-out and setting: the value for `Cc1c(-c2ccc(C(N)=O)c3[nH]c(-c4cccnc4)cc23)cccc1N1Cc2ccc(F)cc2C1=O` [A.7.6] was > 7.00; that for `Cc1c(-c2ccc(C(N)=O)c3[nH]c(-c4cnn(C)c4)cc23)cccc1N(C(=O)c1nccs1)C1COC1` [A.10.3, N-(3-(7-carbamoyl-2-(1-methyl-1H-pyrazol-4-yl)-1H-indol-4-yl)-2-methylphenyl)-N-(oxetan-3-yl)thiazole-2-carboxamide] was > 7.00.
On the same count and under the same terms, next, `CC(=O)N1CCC(c2cc3c(-c4cccc(N)c4C)ccc(C(N)=O)c3[nH]2)CC1` [L.1, 2-(1-Acetylpiperidin-4-yl)-4-(3-amino-2-methylphenyl)-1H-indole-7-carboxamide]: 6.00 to 7.00.
